Earlier results as cited in US9371263B2, “Protective effects of curcumin against hemorrhagic stroke injury” (Augusta University Research Institute, Inc., priority 2013, dated 2016).

Conditions: humans, oral administration

Structure (SMILES): COc1cc(/C=C/C(=O)CC(=O)/C=C/c2ccc(O)c(OC)c2)ccc1O [curcumin, diferuloylmethane]
- systemic bioavailability: relatively low
